Measurements taken from article PMC4259358, “Functional Characterization of Nuclear Localization and Export Signals in Hepatitis C Virus Proteins and Their Role in the Membranous Web” (PLoS ONE, 2014).

What was measured:
JFH-1 HCV [1] = settings: literature value; cited from earlier work
Method: Ezetimibe is known to inhibit a late stage of HCV entry, and it lost its ability to inhibit HCV infection when added 4–10 h PTS, thus defining the last phase of entry (Fig. 6A). […] In our study, the inhibitory effect of LMB was lost 10–14 hours PTS (Fig. 6A). BMS-986094, an inhibitor of NS5B polymerase, lost its ability to inhibit HCV infection when added 10–24 h PTS, thus defining the period of viral RNA synthesis (Fig. 6A). The ...

[2] = tested on: interaction of core, NS3, or NS5A with IPO5; assay: Peptide competition of HCV protein-NTF interaction (ELISA in-vitro, Co-IP in cell culture); type: biochemical; settings: ELISA with 100 µM peptide and Co-IP of V5 tagged HCV proteins; n = 3
Method: (§1) To examine the specificity of the interactions between HCV proteins and NTFs, we examined the ability of each putative NLS or NES peptide identified in Fig. 1 to disrupt the interaction between the HCV protein and the NTF, using an ELISA in-vitro and co-immunoprecipitation (Co-IP) in cell culture assays (Fig. 3, S3 and S4 Figure). The ELISA plates were coated with HCV proteins while NTFs and competitive peptides were added, and the fraction of bound NTF was measured using NTF specific antibodies. The Co-IP was conducted by expression of V5 tagged HCV proteins in the presence of competing peptides, followed by immunoprecipitation with V5 specific antibody and immunoblotting with specific NTF antibodies.
(§2) Figure 3 Analysis of HCV protein binding to NTFs in the presence of NLS and NES peptides. ELISA plates were coated with HCV proteins and the relative binding of the different NTFs was monitored by ELISA in the presence of 100 µM of the indicated peptide. For the Co-IP study, cells were transfected by plasmid encoding to V5 tagged HCV proteins and treated by the indicated peptides. After 48 h, cells were lysed and Co-IP using anti V5 antibody and blotted to enable detection of the different NTFs. Western blots were quantified using Multi Gauge v. 3.0. […] The y-axis represents the percentage of NTF bound to the HCV protein; the interaction without the peptide is set to 100%. Error bars represent ± standard deviation, n = 3. The significant difference between the untreated (no peptide) and peptide treated is indicated by: * p<0.05, ** p<0.01, *** p<0.001, **** p<0.0001.
(§3) Protein-peptide and protein-protein binding were estimated using an ELISA-based binding assay as described previously. Briefly, ELISA plates were coated with 200 µl of a 10 µg/ml of synthetic peptide or recombinant protein in a carbonate buffer (0.05 M Na2CO3/0.05 M NaHCO3, pH 9.6) overnight at 4°C. After incubation, the solution was removed, and the plates were washed three times with PBS. […] Each measurement was performed in duplicate.

[3] = tested on: core- and NS2-XPO1 interactions; assay: as above; type: biochemical; settings: plates coated with HCV protein, 100 µM peptide, n = 3
Method: as §1, §2, §3

[4] = tested on: interaction of core, NS2, or NS3 with IPOA5; assay: as above; type: biochemical; settings: ELISA with 100 µM peptide and Co-IP of V5 tagged HCV proteins; n = 3
Method: as §1, §2, §3

IPOA5 = target: T1, IPOA5 (Homo sapiens, UniProt P52294); assay: biochemical; type: binding; settings: ELISA, immobilized peptide or HCV protein
T1 construct: Expression and purification of full length IPOA5, IPO5 were perform according to methods described previously; His tag; made in house; host or cells: Escherichia coli BL21(DE3), pET21 vector

HEK293T cells = assay: Localization of nuclear transport signal-double GFP reporter in HEK293T cells; type: cell-based; design: key: +++ for strong; ++ for moderate; + for weak; − for no localization; settings: double GFP cargo, 24 h post transfection, fluorescence quantified with ImageJ (S6, S7 Figures); NES/SEN on SV40 NLS double GFP
Text: To determine whether NTF binding sites found in the HCV proteins were functional nuclear transport signals, we constructed reporter proteins each consisting of one of the HCV proteins NTF binding sites followed by two C-terminal, tandemly repeated GFP molecules. The double GFP moieties were required to keep the reporter from entering the nucleus, since a single GFP is small enough to diffuse freely through NPCs, [35]. As controls, constructs containing the reversed amino-acid residue sequence of the potential NLS (SLN) were also examined using the double GFP reporter assay (S5 Figure). These SLN reporters were predicted to not accumulate in the nucleoplasm. In addition, reporters to examine the functionality of the potential XPO1 binding domains were also constructed. These reporters consist of an SV40 NLS and a double GFP molecule followed by one of the various potential NESs at the C-terminus (S5 Figure). In the absence of a functional NES, this reporter will accumulate in the nucleus. However, a functional NES is predicted to export the reporter, leading to increased steady-state levels of the reporter in the cytoplasm.
Figure 4 Functionality of the putative nuclear transport signals in cells. Cells were transfected by the vectors encoding a nuclear transport reporter consisting of a tandemly repeated double GFP fused to the indicated C-terminal nuclear transport signal (panels A-N). At 24 h following transfection, cells were fixed and stained with Hoechst to visualize the nucleus. Cells were examined using a Zeiss inverted Axiovert 200 M microscope to assess the localization of the GFP (green) and its relationship to the nucleus (blue). A hashed yellow square demarcates the magnified area shown in the right-most image of each panel. Fluorescent intensity was quantified using ImageJ v. […] Analysis of the reverse sequences of each transport signal as well as the mutant SV40 NLS was also performed and the results are shown in S7 Figure.
Nuclear transport signals-double GFP constructs were transfected into HEK293T cells using lipofectamine 2000. At 24 h post transfection cells were fixed, stained, and visualized for localization of the GFP. For detailed information see S1 Methods.
Nuclear transport signal-double GFP constructs were transfected into HEK293T cells using lipofectamine 2000 reagent (Invitrogen, 11668019). At 24 h post transfection cells were fixed with 3.76% formaldehyde at room temperature (Sigma, F8775-500ML) for 8 min then permeabilized in 0.2% Triton X-100 (VWR, CA97062-208) for 2 min. Cells were washed three times with X1 PBS and were stained with Hoechst 1:5000 in X1 PBS for 5 min followed by three washes with X1 PBS. The cells were visualized using a Zeiss inverted Axiovert 200M microscope with a 20x/0.8 objective lens to examine localization of the GFP. At least ten random fields of cells were imaged for each combination. Channels were merged using ImageJ software (National Institutes of Health). Photoshop Elements 10 (Adobe) software was used to adjust brightness and contrast levels for individual images and to assemble images into figures.

JFH-1 HCV [5] = type: cell-based, Hepatitis C virus
Method: Huh7.5 cells were infected with JFH-1 HCV and maintained at 4°C for 4 hours (h) to synchronize the cells before shifting the temperature to 37°C. Post temperature shift (PTS), infected cells were incubated for various lengths of times prior to the addition of peptides or known inhibitors of HCV at 2 h intervals. […] We deliberately selected the final time point of 72 h PTS to reflect the number of cells infected by a second round of infection. […] This would be reflected by the number of cells infected in the second round as measured at 72 h PTS.
In order to elucidate the time points in infection when the nuclear transport signals bearing peptides are functional, cells were synchronously infected and treated with the indicated peptides. Each time point (2 h intervals) represents a culture treated with the indicated reagent at the specified time post temperature shift (PTS) and initiation of HCV infection. […] (A) Known inhibitors of HCV production (Ezetimibe (30 µM), LMB (18 nM), BMS-986094 (10 nM) and DGAT 1 inhibitor (10 nM)) and control (Pen peptide 100 µM, DMSO 2%, no treatment, and no infection) were examined. […] Error bars represent ± standard deviation, n = 3.
For the time of addition experiments, cells were seeded at a density of 6.25×10^4 cells/well in a 96-well plate and infected with 0.1 genomic equivalents of serially passaged JFH-1 virus on ice: cells then were incubated at 4°C for 4 h.
Briefly, Huh7.5 cells were infected as described above and the test compounds were added to different wells at different time points before the temperature shift (-4 h and -2 h) and every 2 h after the temperature shift (0, 2, 4,…, 48 h). […] The infection levels were calculated by counting infected and total cells numbers in ten random fields for each condition. The non-treated cell infection level was normalized to 100% and all other infections were calculated based on that normalization.

XPO1 = target: T2, XPO1 (Homo sapiens, UniProt O14980); assay: ELISA-based binding assay (Kd(app))
T2 construct: Expression and purification of full length XPO1 were perform according to methods described in a previous publication; His tag; made in house; host or cells: Escherichia coli BL21(DE3), pET21 vector
T2 sequence (O14980 whole entry): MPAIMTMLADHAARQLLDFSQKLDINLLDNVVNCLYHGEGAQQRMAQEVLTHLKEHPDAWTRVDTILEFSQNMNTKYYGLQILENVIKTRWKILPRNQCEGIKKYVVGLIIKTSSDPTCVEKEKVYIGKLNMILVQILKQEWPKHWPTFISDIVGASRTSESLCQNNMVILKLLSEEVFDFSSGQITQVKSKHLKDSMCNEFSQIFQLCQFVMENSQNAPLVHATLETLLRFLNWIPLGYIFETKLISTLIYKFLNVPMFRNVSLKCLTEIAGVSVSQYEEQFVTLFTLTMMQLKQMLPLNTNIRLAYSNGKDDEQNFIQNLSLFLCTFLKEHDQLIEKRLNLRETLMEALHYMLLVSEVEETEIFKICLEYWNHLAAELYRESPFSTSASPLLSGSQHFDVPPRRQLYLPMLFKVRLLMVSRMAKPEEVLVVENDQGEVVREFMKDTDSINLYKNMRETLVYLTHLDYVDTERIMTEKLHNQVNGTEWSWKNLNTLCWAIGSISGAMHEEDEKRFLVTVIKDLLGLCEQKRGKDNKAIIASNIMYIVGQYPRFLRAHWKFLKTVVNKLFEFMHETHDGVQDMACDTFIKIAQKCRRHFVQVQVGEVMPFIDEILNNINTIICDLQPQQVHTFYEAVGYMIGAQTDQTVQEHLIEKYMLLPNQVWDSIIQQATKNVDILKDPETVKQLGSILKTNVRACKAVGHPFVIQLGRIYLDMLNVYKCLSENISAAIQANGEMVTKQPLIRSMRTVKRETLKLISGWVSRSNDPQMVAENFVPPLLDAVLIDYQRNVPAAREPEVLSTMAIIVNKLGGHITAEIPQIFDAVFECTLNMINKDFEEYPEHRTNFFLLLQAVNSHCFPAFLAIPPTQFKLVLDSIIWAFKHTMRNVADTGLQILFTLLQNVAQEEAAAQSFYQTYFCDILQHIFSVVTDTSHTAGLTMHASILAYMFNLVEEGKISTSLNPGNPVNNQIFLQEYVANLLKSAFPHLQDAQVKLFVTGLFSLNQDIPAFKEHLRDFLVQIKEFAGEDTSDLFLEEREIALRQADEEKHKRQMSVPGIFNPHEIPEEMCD

T1 sequence (P52294 whole entry): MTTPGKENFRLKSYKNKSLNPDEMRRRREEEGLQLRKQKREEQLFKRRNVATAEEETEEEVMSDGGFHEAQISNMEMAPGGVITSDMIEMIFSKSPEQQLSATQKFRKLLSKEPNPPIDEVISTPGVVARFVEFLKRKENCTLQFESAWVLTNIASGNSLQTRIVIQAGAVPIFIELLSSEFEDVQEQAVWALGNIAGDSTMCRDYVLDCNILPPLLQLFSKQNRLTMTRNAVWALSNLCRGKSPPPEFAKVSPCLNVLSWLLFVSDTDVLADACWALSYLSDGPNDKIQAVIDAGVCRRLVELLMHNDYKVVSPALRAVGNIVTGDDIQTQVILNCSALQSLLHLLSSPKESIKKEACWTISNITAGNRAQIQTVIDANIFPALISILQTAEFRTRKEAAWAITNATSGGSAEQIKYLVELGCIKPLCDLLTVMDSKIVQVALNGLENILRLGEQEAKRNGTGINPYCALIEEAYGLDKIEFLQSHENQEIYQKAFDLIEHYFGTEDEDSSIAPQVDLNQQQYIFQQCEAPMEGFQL

## CCC(=C/[C@H](C)C/C=C/C(C)=C/[C@@H](C)C(=O)[C@@H](C)[C@H](O)[C@@H](C)C/C(C)=C/C(=O)O)/C=C/[C@@H]1OC(=O)C=C[C@@H]1C [LMB, Leptomycin B]
JFH-1 HCV [1]
  time at which the inhibitory effect on HCV was lost: 8 h post infection

## PKTKRKVRQIKIWFQNRRMKWKK [SV40 mut NLS, reference compound]
[2]
  effect of peptide on HCV protein-IPO5 interaction (in words): do not interfere with IPOA5, IPO5 or XPO1 binding
[3]
  effect of peptide on HCV protein-XPO1 interaction (in words), ELISA: do not interfere with IPOA5, IPO5 or XPO1 binding
[4]
  effect of peptide on HCV protein-IPOA5 interaction (in words): do not interfere with IPOA5, IPO5 or XPO1 binding
IPOA5
  binding to IPOA5 (in words): does not bind IPOA5
HEK293T cells
  Localization Cytoplasmic: +++
  Localization Nuclear: −

## RQIKIWFQNRRMKWKK [Pen]
JFH-1 HCV [5]; Pen peptide 100 µM, time of addition experiment
  effect on infection (in words): had no effect on infection
[2]
  effect of peptide on HCV protein-IPO5 interaction (in words): do not interfere with IPOA5, IPO5 or XPO1 binding
[3]
  effect of peptide on HCV protein-XPO1 interaction (in words), ELISA: do not interfere with IPOA5, IPO5 or XPO1 binding
[4]
  effect of peptide on HCV protein-IPOA5 interaction (in words): do not interfere with IPOA5, IPO5 or XPO1 binding

## CC[C@H](C)[C@H](NC(=O)[C@H](CC(C)C)NC(=O)[C@H](CCCNC(=N)N)NC(=O)[C@H](C)NC(=O)[C@H](CC(C)C)NC(=O)[C@H](Cc1ccccc1)NC(=O)[C@H](CC(C)C)NC(=O)[C@H](CCCCN)NC(=O)[C@H](Cc1ccc(O)cc1)NC(=O)[C@H](Cc1c[nH]cn1)NC(=O)[C@@H]1CCCN1C(=O)[C@H](CO)NC(=O)[C@H](CC(C)C)NC(=O)[C@@H](NC(=O)[C@H](CC(C)C)NC(=O)[C@H](CC(C)C)NC(=O)[C@@H](NC(=O)[C@@H](N)CC(C)C)[C@@H](C)CC)[C@@H](C)O)C(=O)N[C@@H](Cc1c[nH]c2ccccc12)C(=O)N[C@@H](Cc1c[nH]c2ccccc12)C(=O)N[C@@H](CC(C)C)C(=O)N[C@@H](CCC(N)=O)C(=O)N[C@@H](Cc1ccc(O)cc1)C(=O)N[C@@H](Cc1ccccc1)C(=O)N[C@H](C(=O)N[C@H](C(=O)N[C@@H](CCCNC(=N)N)C(=O)N[C@@H](CCC(N)=O)C(=O)N[C@H](C(=O)N[C@@H](CCCCN)C(=O)N[C@H](C(=O)N[C@@H](Cc1c[nH]c2ccccc12)C(=O)N[C@@H](Cc1ccccc1)C(=O)N[C@@H](CCC(N)=O)C(=O)N[C@@H](CC(N)=O)C(=O)N[C@@H](CCCNC(=N)N)C(=O)N[C@@H](CCCNC(=N)N)C(=O)N[C@@H](CCSC)C(=O)N[C@@H](CCCCN)C(=O)N[C@@H](Cc1c[nH]c2ccccc12)C(=O)N[C@@H](CCCCN)C(=O)N[C@@H](CCCCN)C(=O)O)[C@@H](C)CC)[C@@H](C)CC)[C@@H](C)O)[C@@H](C)CC [NS2 NES]
XPO1
  Kd: 79.9 ± 25.6 nM

## COc1nc(N)nc2c1ncn2[C@@H]1O[C@H](COP(=O)(N[C@@H](C)C(=O)OCC(C)(C)C)Oc2cccc3ccccc23)[C@@H](O)[C@@]1(C)O (stereo partly shown) [BMS-986094]
JFH-1 HCV [5]; Huh7.5, JFH-1, 4 h at 4°C then 37°C, added at 2 h intervals, % NS5A-positive cells at 72 h PTS, Ezetimibe 30 µM, LMB 18 nM, BMS-986094 10 nM, DGAT 1 inhibitor 10 nM, n = 3
  time of addition at which the ability to inhibit HCV infection is lost: 10–24 h PTS
